Measurements as given in article PMC4741889, “Ligand-based chemoinformatic discovery of a novel small molecule inhibitor targeting CDC25 dual specificity phosphatases and displaying in vitro efficacy against melanoma cells” (Oncotarget, 2015).
Where two headings read alike, the source gives them in different places.

Legend:
CDC25B [1] = molecular target: T1, CDC25B (Homo sapiens, UniProt P30305); experiment: Residual phosphatase activity of recombinant CDC25B, fluorimetric OMFP assay; assay type: biochemical; settings: for remaining activity at 0.2 µM: 0.2 μM inhibitor; for remaining activity at 0.2 µM / remaining activity at 1 µM: 10 nM CDC25B, 25 μM OMFP, read-out: CDC25B residual activity (%) in the presence of [inhibitor]; for remaining activity at 1 µM: 1 μM inhibitor; for inhibition of the CDC25B phosphatase activity (in words): two inhibitor concentrations, 0.2 and 1 μM
T1 construct: Recombinant forms of the catalytic domains of CDC25A, -B and -C were obtained through the vectors pET28a-CDC25A-cd, pET28a-CDC25B-cd and pET28a-CDC25C-cd; made in house
T1 sequence (P30305 431-538 limits assumed): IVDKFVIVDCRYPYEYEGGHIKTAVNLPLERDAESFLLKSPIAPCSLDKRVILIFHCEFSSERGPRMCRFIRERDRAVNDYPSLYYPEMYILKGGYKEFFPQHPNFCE
Description: Among the twenty-five structures identified from the multiple ligand-based chemoinformatic approach, eight compounds (2, 10, 12–14, and 16–18) were excluded from the analysis, because endowed with a strong fluorescent signal, which interfered with the emission wavelength of the synthetic substrate 3-O-methylfluorescein phosphate (OMFP) used in the fluorimetric assay. The inhibition of the phosphatase activity of CDC25B by the remaining seventeen analogs was evaluated in the presence of two different concentrations of these compounds (Table 2). […] For this reason, only one of these latter compounds, i.e. 3, was included in the following analysis.
The enzymatic activity of the catalytic domains of CDC25A, -B and -C were determined through a fluorimetric method, which monitored the dephosphorylation of the synthetic substrate OMFP, essentially as previously described. In steady-state enzyme kinetic studies, the residual phosphatase activity of purified recombinant CDC25B was measured at 30°C in the presence of different concentrations of the various inhibitors, using a computer-assisted Cary Eclipse spectrofluorimeter (Varian) equipped with an electronic temperature controller. Excitation and emission wavelengths were set at 485 and 530 nm, respectively; both excitation and emission slits were set at 10 nm. The reaction mixture contained 10 nM CDC25B and different concentrations of the various inhibitors in 500 μL final volume of 20 mM Tris-HCl, pH 7.8, 1 mM DTT. DMSO was used as vehicle control. The reaction started by the addition of 25 μM OMFP, and the formation of the fluorescent product o-methylfluorescein was monitored continuously. The rate of OMFP hydrolysis was expressed as arbitrary units per min (a.u./min). The comparison of the rates determined in the absence and in the presence of the various inhibitors allowed the calculation of the residual phosphatase activity, expressed as a percentage.

CDC25A = molecular target: T2, CDC25A (Homo sapiens, UniProt P30304); experiment: Ki from OMFP hydrolysis kinetics (Lineweaver-Burk), CDC25A; assay type: biochemical
T2 construct: Recombinant forms of the catalytic domains of CDC25A, -B and -C were obtained through the vectors pET28a-CDC25A-cd, pET28a-CDC25B-cd and pET28a-CDC25C-cd; made in house
T2 sequence (P30304 376-482 limits assumed): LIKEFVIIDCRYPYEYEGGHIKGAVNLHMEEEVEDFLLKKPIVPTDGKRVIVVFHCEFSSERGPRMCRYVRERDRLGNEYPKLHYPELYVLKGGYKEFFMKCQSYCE
Description: (§1) To measure the inhibition constant (Ki) of the recombinant forms of CDC25A, -B and -C towards the various inhibitors, the affinity of the different forms of CDC25 towards OMFP was measured either in the absence or in the presence of fixed concentrations of the various inhibitors. The reaction mixture contained 20 nM CDC25A, or 10 nM CDC25B, or 40 nM CDC25C, and different concentrations of the various inhibitors in 500 μL final volume of 20 mM Tris-HCl, pH 7.8, 1 mM DTT. DMSO was used as vehicle control. […] The corresponding Lineweaver-Burk plots allowed the calculation of the KM for OMFP and of the Vmax of OMFP hydrolysis, expressed as a.u./minmax. […] The Ki values were obtained from the decrease of a.u./minmax in the presence of the inhibitor, according to the equation a.u./mimmax’ = a.u./mimmax/{1 + ([I]/Ki)}, where a.u./mimmax’ represents the Vmax measured in the presence of the concentration [I] of the inhibitor. The Ki values were obtained from at least three independent experiments and reported as mean ± S.E.

CDC25B [2] = molecular target: T1, CDC25B; experiment: Ki from OMFP hydrolysis kinetics (Lineweaver-Burk), CDC25B; assay type: biochemical; settings: 10 nM CDC25B, 1–25 μM OMFP; mean ± S.E.
Description: To measure the inhibition constant (Ki) of the recombinant forms of CDC25A, -B and -C towards the various inhibitors, the affinity of the different forms of CDC25 towards OMFP was measured either in the absence or in the presence of fixed concentrations of the various inhibitors. The reaction mixture contained 20 nM CDC25A, or 10 nM CDC25B, or 40 nM CDC25C, and different concentrations of the various inhibitors in 500 μL final volume of 20 mM Tris-HCl, pH 7.8, 1 mM DTT. DMSO was used as vehicle control. The reaction started by the addition of 1–25 μM OMFP, and the rate of OMFP hydrolysis was measured as indicated before. The corresponding Lineweaver-Burk plots allowed the calculation of the KM for OMFP and of the Vmax of OMFP hydrolysis, expressed as a.u./minmax. […] The Ki values were obtained from the decrease of a.u./minmax in the presence of the inhibitor, according to the equation a.u./mimmax’ = a.u./mimmax/{1 + ([I]/Ki)}, where a.u./mimmax’ represents the Vmax measured in the presence of the concentration [I] of the inhibitor. The Ki values were obtained from at least three independent experiments and reported as mean ± S.E.

CDC25C = molecular target: T3, CDC25C (Homo sapiens, UniProt P30307); experiment: Ki from OMFP hydrolysis kinetics (Lineweaver-Burk), CDC25C; assay type: biochemical
T3 construct: Recombinant forms of the catalytic domains of CDC25A, -B and -C were obtained through the vectors pET28a-CDC25A-cd, pET28a-CDC25B-cd and pET28a-CDC25C-cd; made in house
T3 sequence (P30307 321-428 limits assumed): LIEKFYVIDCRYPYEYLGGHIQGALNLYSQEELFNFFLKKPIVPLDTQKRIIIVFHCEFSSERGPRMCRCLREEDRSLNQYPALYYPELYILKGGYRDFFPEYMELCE
Description: as §1

A2058 cells = experiment: MTT cell growth rate, A2058 melanoma cells; assay type: cell-based, human; settings: A2058, 100 μM, 48 h, MTT
Description: (§2) The human melanoma cell line A2058, kindly provided by CEINGE (Naples, Italy), and SAN cells were derived from lymph nodal metastases and grown in DMEM and RPMI 1640, respectively, supplemented with 10% FBS, 2 mM L-glutamine, 100 IU/mL penicillin G, and 100 μg/mL streptomycin in humidified incubator at 37°C under 5% CO2 atmosphere. All cells were split and seeded every three days and used during the exponential phase of growth. Cell treatments were always carried after 24 h from plating.
(§3) The MTT assay was used to detect cell proliferation essentially as previously described. Briefly, A2058 and SAN cells were plated in 96-well microtiter plates (100 μL/well) at 4000 and 6000 cells/well, respectively. After 24-h seeding, cells were treated with the selected compounds added at 25, 50 or 100 μM concentration, or with 0.5% (v/v) DMSO as a vehicle control. After 24-h, 48-h or 72-h treatment, and upon the addition of 10 μL of MTT solution in the dark, the plate was incubated for 3 h at 37°C under CO2 atmosphere. After medium aspiration and solubilization of formazan crystals, absorbance was measured at 570 nm, using an ELISA plate reader (Bio-Rad, Milano, Italy).

SAN cells = experiment: MTT cell growth rate, SAN melanoma cells; assay type: cell-based, human; settings: 100 μM, 48 h, MTT
Description: as §2, §3

[3] = 20 nM CDC25A, 1–25 μM OMFP, mean ± S.E., read-out: Ki CDC25A
[4] = 40 nM CDC25C, 1–25 μM OMFP, mean ± S.E., read-out: Ki CDC25C

SMILES | remaining activity at 0.2 µM (CDC25B [1]) [%] | remaining activity at 1 µM (CDC25B [1]) [%] | inhibition of the CDC25B phosphatase activity (in words) (CDC25B [1]) | Ki (CDC25A; [3]) [nM] | Ki (CDC25B [2]) [nM] | Ki (CDC25C; [4]) [nM] | cell growth rate (A2058 cells) | cell growth rate (SAN cells) | Ki (CDC25A) [nM] | Ki (CDC25C) [nM]
Cc1c2ccc(=O)cc-2oc2cc(O)ccc12 [Compound 1] | 76 | 9 | measurable inhibition of the phosphatase activity, only when added at the highest concentration | – | – | – | – | – | – | –
O=C(O)c1c2ccc(=O)cc-2oc2cc(O)ccc12 [Compound 3] | 85 | 62 | measurable inhibition of the phosphatase activity, only when added at the highest concentration | 280 ± 90 | 2400 ± 390 | 4400 ± 620 | failure | failure | – | –
O=C(O)CCc1c2ccc(=O)cc-2oc2cc(O)ccc12 [Compound 4] | 90 | 28 | measurable inhibition of the phosphatase activity, only when added at the highest concentration | – | – | – | – | – | – | –
O=C(O)C=Cc1c2ccc(=O)cc-2oc2cc(O)ccc12 [Compound 5] | 12 | 2 | – | 380 ± 120 | 120 ± 50 | 390 ± 150 | failure | failure | – | –
O=C(O)/C=C/c1c2ccc(=O)c(O)c-2oc2c(O)c(O)ccc12 [Compound 6, (E)-3-(4,5,6-trihydroxy-3-oxo-3H-xanthen-9-yl)acrylic acid] | 14 | 2 | – | 100 ± 30 | 1100 ± 370 | 1000 ± 410 | – | significant reduction of cell growth rate | – | –
O=c1cc2oc3cc(O)c(O)cc3c(-c3ccccc3)c-2cc1O [Compound 9] | 9 | 0 | – | 800 ± 310 | 440 ± 200 | 1500 ± 480 | failure | failure | – | –
O=C(O)c1ccccc1-c1c2cc(I)c(=O)c(I)c-2oc2c(I)c(O)c(I)cc12 [Compound 15] | 79 | 18 | measurable inhibition of the phosphatase activity, only when added at the highest concentration | – | – | – | – | – | – | –
O=C(O)c1ccccc1-c1c2cc([N+](=O)[O-])c(=O)c(Br)c-2oc2c(Br)c(O)c([N+](=O)[O-])cc12 [Compound 19] | 86 | 70 | measurable inhibition of the phosphatase activity, only when added at the highest concentration | – | – | – | – | – | – | –
O=c1ccc2c(-c3ccccc3S(=O)(=O)O)c3ccc(O)c(O)c3oc-2c1O [Compound 20] | 91 | 24 | measurable inhibition of the phosphatase activity, only when added at the highest concentration | – | – | – | – | – | – | –
CN(C)c1ccc(-c2c3cc(O)c(=O)cc-3oc3cc(O)c(O)cc23)cc1 [Compound 22] | 80 | 0 | measurable inhibition of the phosphatase activity, only when added at the highest concentration | – | – | – | – | – | – | –
O=C(O)C1[C@H]2C=C[C@H](C2)[C@H]1c1c2ccc(=O)c(O)c-2oc2c(O)c(O)ccc12 (stereo partly drawn) [Compound 24, (1R,3R,4S)-3-(4,5,6-trihydroxy-3-oxo-3H-xanthen-9-yl)bicyclo[2.2.1]hept-5-ene-2-carboxylic acid] | 22 | 3 | – | – | 300 ± 80 | – | – | significant reduction of cell growth rate | 10 ± 5 | 400 ± 110
O=C(O)C1C(c2c3ccc(=O)c(O)c-3oc3c(O)c(O)ccc23)C2(Cl)C(Cl)=C(Cl)C1(Cl)C2(Cl)Cl (centres unmarked) [Compound 25] | 24 | 1 | – | 400 ± 150 | 1100 ± 400 | 960 ± 380 | failure | failure | – | –
